This note sets out measurements from US20240218022A1, “ANTI-VISTA MACROCYCLIC PEPTIDES AND COMPOSITIONS” (BRISTOL-MYERS SQUIBB COMPANY, priority 2022, published 2024).

The IC50 is the concentration that inhibits the measured activity by half.

Positions of bridges follow the written chain, without caps; N, C: chain ends. Non-standard residues stand in square brackets, D forms with d. Residues, ends and D or L forms follow the SMILES beside them. 2Nal = N[C@@H](Cc1ccc2ccccc2c1)C(=O)O; Tic = O=C(O)[C@@H]1Cc2ccccc2CN1; Ahp(2) = CCCCC[C@H](N)C(=O)O; NHexGly = CCCCCCNCC(=O)O; Nle = CCCC[C@H](N)C(=O)O; Orn = NCCC[C@H](N)C(=O)O

The target of this assay is T1, mouse VISTA (mVISTA) (Mus musculus, UniProt Q9D659).
T1 construct: expressed in transfected cells; host or cells: Human embryonic kidney 293T cells
T1 sequence (Q9D659 33-308): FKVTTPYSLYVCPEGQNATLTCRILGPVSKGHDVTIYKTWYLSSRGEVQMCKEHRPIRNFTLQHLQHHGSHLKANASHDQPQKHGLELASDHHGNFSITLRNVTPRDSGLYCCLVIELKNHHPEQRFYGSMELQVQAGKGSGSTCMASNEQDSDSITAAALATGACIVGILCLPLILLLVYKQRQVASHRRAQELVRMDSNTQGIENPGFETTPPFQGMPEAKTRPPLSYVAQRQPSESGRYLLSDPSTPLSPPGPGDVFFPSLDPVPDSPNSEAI
Kind of assay: Cell-Based Binding High-Content Assay For mVISTA (HC CBA mVISTA). The settings on record: cell-based binding high-content assay, mVISTA; the 16th table; read-out: HC CBA mVISTA IC50. How it is done:
Cell-Based Binding High-Content Assay For mVISTA
Human embryonic kidney 293T cells (293T) expressing mouse VISTA (mVISTA) were used for the assessment of compounds competing with the binding of a biotinylated peptide. Cryopreserved cells were thawed in a 37° C. water bath and incubated overnight at a 37° C./5% CO2 incubator in assay culture media DMEM (Life Technologies Inc. Cat. No. 11995-126) supplemented with 10% (v/v) FBS (Sigma, Cat. No. F4135), 1× Penicillin/Streptomycin (Life Technologies Inc. Cat. No. 15140-122). Cells were harvested, washed and resuspended in DMEM media […]. To test compounds under “no-wash” condition, cells were seeded into PDL-coated 384 well plates (Corning, Cat. No. 356663) at 4,000 cells/20 μL. After incubating the cell plates for two hours at a 37° C./5% CO2 incubator, 125 nL of test compound was added using an ECHO. Alternatively, to test compounds under “wash” condition, test compounds were added first, followed by addition of 20 μL cells at a density of 4000 cells/well. After incubation for an hour, the media was removed, followed by addition of 20 μL of fresh media ( ), and plates were then incubated for another hour. To plates either under “no wash” or “wash” condition, the biotinylated peptide was added to a final concentration of 2 nM, and plates were incubated at room temperature for 30 minutes. Fifteen (15) μL of Alexa 647 conjugated Streptavidin (Life Tech, Cat. No. S21374), suspended at 2 μg/ml in media, was added to the assay plate and incubate for 30 minutes. Cells were fixed by adding 15 μL of formaldehyde at a final concentration of 8% (w/v) (Sigma Cat. No. 252549), 20 μg/mL Hoechst (Thermo Scientific Cat. No. 62249) in PBS for 10 minutes at room temperature. The plates were washed 3 times in dPBS, sealed, and read on a CellInsight NXT High Content Screening Platform IC903000 (Thermo Scientific). The 50% effective concentration (IC50) was calculated using the four-parameter logistic formula y=A+((B−A)/(1+((C/x)^D))), where A and B denote minimal and maximal % inhibition, respectively, C is the EC50, D is hill slope and x represent compound concentration.
Consider `CCCCCCN1CC(=O)N[C@@H](Cc2ccc(O)cc2)C(=O)N[C@@H](CC(C)C)C(=O)N[C@@H](CC(=O)O)C(=O)N[C@@H](CCCNC(=N)N)C(=O)N[C@@H](CC(C)C)C(=O)N[C@@H](CCCCC)C(=O)N2CCC[C@H]2C(=O)N[C@@H](C(C)C)C(=O)N[C@@H](CC(=O)O)C(=O)N[C@H](C(=O)NCC(=O)O)CSCC(=O)N[C@@H](Cc2ccc3ccccc3c2)C(=O)N[C@@H](Cc2ccc(O)cc2)C(=O)N[C@@H](CC(=O)O)C1=O` [Ex 1278] ({CH2CO}-[2Nal]YD[NHexGly]YLDRL[Ahp(2)]PVDCG-OH; thioether N-14), for which the IC50 is 0.024 µM. For `CCCCCCN1CC(=O)N[C@@H](Cc2ccc(O)cc2)C(=O)N[C@@H](CCCCC)C(=O)N[C@@H](CC(=O)O)C(=O)N[C@@H](CCCNC(=N)N)C(=O)N[C@@H](CC(C)C)C(=O)N[C@@H](CCCCC)C(=O)N2CCC[C@H]2C(=O)N[C@@H](C(C)C)C(=O)N[C@@H](CC(=O)O)C(=O)N[C@H](C(=O)NCC(N)=O)CSCC(=O)N[C@@H](Cc2ccc3ccccc3c2)C(=O)N[C@@H](Cc2ccc(O)cc2)C(=O)N[C@@H](CC(=O)O)C1=O` [Ex 1279] ({CH2CO}-[2Nal]YD[NHexGly]Y[Ahp(2)]DRL[Ahp(2)]PVDCG-NH2; thioether N-14), the IC50 was 0.0266 µM. In the case of `CCCCCCN1CC(=O)N[C@@H](Cc2ccc(O)cc2)C(=O)N[C@@H](C(C)C)C(=O)NCC(=O)N[C@@H](CCCNC(=N)N)C(=O)N[C@@H](CC(C)C)C(=O)N[C@@H](CCCCC)C(=O)N2CCC[C@H]2C(=O)N[C@@H](C(C)C)C(=O)N[C@@H](CC(=O)O)C(=O)N[C@H](C(=O)NCC(=O)O)CSCC(=O)N[C@@H](Cc2ccc3ccccc3c2)C(=O)N[C@@H](Cc2ccc(O)cc2)C(=O)N[C@@H](CC(=O)O)C1=O` [Ex 1280] ({CH2CO}-[2Nal]YD[NHexGly]YVGRL[Ahp(2)]PVDCG-OH; thioether N-14), the IC50 turned out to be 0.0337 µM. Regarding `CCCCCCN1CC(=O)N[C@@H](Cc2ccc(O)cc2)C(=O)N[C@@H](CC(C)C)C(=O)NCC(=O)N[C@@H](CCCNC(=N)N)C(=O)N[C@@H](CC(C)C)C(=O)N[C@@H](CCCCC)C(=O)N2CCC[C@H]2C(=O)N[C@@H](C(C)C)C(=O)N[C@@H](CC(=O)O)C(=O)N[C@H](C(=O)NCC(N)=O)CSCC(=O)N[C@@H](Cc2ccc3ccccc3c2)C(=O)N[C@@H](Cc2ccc(O)cc2)C(=O)N[C@@H](CC(=O)O)C1=O` [Ex 1281] ({CH2CO}-[2Nal]YD[NHexGly]YLGRL[Ahp(2)]PVDCG-NH2; thioether N-14), the IC50 stood at 0.0229 µM.

Take `CCCCCCN1CC(=O)N[C@@H](Cc2ccc(O)cc2)C(=O)N[C@@H](CC(C)C)C(=O)NCC(=O)N[C@@H](CCCNC(=N)N)C(=O)N[C@@H](CC(C)C)C(=O)N[C@@H](CCCCC)C(=O)N2CCC[C@H]2C(=O)N[C@@H](C(C)C)C(=O)N[C@@H](CC(=O)O)C(=O)N[C@H](C(=O)NCC(=O)O)CSCC(=O)N[C@@H](Cc2ccc3ccccc3c2)C(=O)N[C@@H](Cc2ccc(O)cc2)C(=O)N[C@@H](CC(=O)O)C1=O` [Ex 1282] ({CH2CO}-[2Nal]YD[NHexGly]YLGRL[Ahp(2)]PVDCG-OH; thioether N-14): the IC50 came out at 0.0117 µM. For the molecule `CCCCCCN1CC(=O)N[C@@H](Cc2ccc(O)cc2)C(=O)N[C@@H](C(C)C)C(=O)NCC(=O)N[C@@H](CCCNC(=N)N)C(=O)N[C@@H](CC(C)C)C(=O)N[C@@H](CCCCC)C(=O)N2CCC[C@H]2C(=O)N[C@@H](C(C)C)C(=O)N[C@@H](CC(=O)O)C(=O)N[C@H](C(=O)NCC(N)=O)CSCC(=O)N[C@@H](Cc2ccc3ccccc3c2)C(=O)N[C@@H](Cc2ccc(O)cc2)C(=O)N[C@@H](CC(=O)O)C1=O` [Ex 1283] ({CH2CO}-[2Nal]YD[NHexGly]YVGRL[Ahp(2)]PVDCG-NH2; thioether N-14), the IC50 came out at 0.0189 µM. As for `CCCCCCN1CC(=O)N[C@@H](Cc2ccc(O)cc2)C(=O)N[C@@H](CCCC)C(=O)NCC(=O)N[C@@H](CCCNC(=N)N)C(=O)N[C@@H](CC(C)C)C(=O)N[C@@H](CCCCC)C(=O)N2CCC[C@H]2C(=O)N[C@@H](C(C)C)C(=O)N[C@@H](CC(=O)O)C(=O)N[C@H](C(=O)NCC(N)=O)CSCC(=O)N[C@@H](Cc2ccc3ccccc3c2)C(=O)N[C@@H](Cc2ccc(O)cc2)C(=O)N[C@@H](CC(=O)O)C1=O` [Ex 1284] ({CH2CO}-[2Nal]YD[NHexGly]Y[Nle]GRL[Ahp(2)]PVDCG-NH2; thioether N-14), the figure is 0.0036 µM; as for `CCCCCCN1CC(=O)N[C@@H](Cc2ccc(O)cc2)C(=O)N[C@@H](CCCC)C(=O)NCC(=O)N[C@@H](CCCNC(=N)N)C(=O)N[C@@H](CC(C)C)C(=O)N[C@@H](CCCCC)C(=O)N2CCC[C@H]2C(=O)N[C@@H](C(C)C)C(=O)N[C@@H](CC(=O)O)C(=O)N[C@H](C(=O)NCC(=O)O)CSCC(=O)N[C@@H](Cc2ccc3ccccc3c2)C(=O)N[C@@H](Cc2ccc(O)cc2)C(=O)N[C@@H](CC(=O)O)C1=O` [Ex 1285] ({CH2CO}-[2Nal]YD[NHexGly]Y[Nle]GRL[Ahp(2)]PVDCG-OH; thioether N-14), 0.0083 µM; as for `CCCCCCN1CC(=O)N[C@@H](Cc2ccc(O)cc2)C(=O)N[C@@H](CC(C)C)C(=O)NCC(=O)N[C@@H](CCCNC(=N)N)C(=O)N[C@@H](CC(C)C)C(=O)N[C@@H](CCCCC)C(=O)N2CCC[C@H]2C(=O)N[C@@H](C(C)C)C(=O)N[C@@H](CCC(=O)O)C(=O)N[C@H](C(=O)NCC(N)=O)CSCC(=O)N[C@@H](Cc2ccc3ccccc3c2)C(=O)N[C@@H](Cc2ccc(O)cc2)C(=O)N[C@@H](CC(=O)O)C1=O` [Ex 1286] ({CH2CO}-[2Nal]YD[NHexGly]YLGRL[Ahp(2)]PVECG-NH2; thioether N-14), 0.0392 µM.

Consider `CCCCCCN1CC(=O)N[C@@H](Cc2ccc(O)cc2)C(=O)N[C@@H](CCCC)C(=O)NCC(=O)N[C@@H](CCCNC(=N)N)C(=O)N[C@@H](CC(C)C)C(=O)N[C@@H](CCCCC)C(=O)N2CCC[C@H]2C(=O)N[C@@H](C(C)C)C(=O)N[C@@H](CCC(=O)O)C(=O)N[C@H](C(=O)NCC(N)=O)CSCC(=O)N[C@@H](Cc2ccc3ccccc3c2)C(=O)N[C@@H](Cc2ccc(O)cc2)C(=O)N[C@@H](CC(=O)O)C1=O` [Ex 1287] ({CH2CO}-[2Nal]YD[NHexGly]Y[Nle]GRL[Ahp(2)]PVECG-NH2; thioether N-14), for which the IC50 came to 0.0427 µM. With `CCCCCCN1CC(=O)N[C@@H](Cc2ccc(O)cc2)C(=O)N[C@@H](CCCCN)C(=O)NCC(=O)N[C@@H](CCCN)C(=O)N[C@@H](CC(C)C)C(=O)N[C@@H](CCCCC)C(=O)N2CCC[C@H]2C(=O)N[C@@H](C(C)C)C(=O)N[C@@H](CO)C(=O)N[C@H](C(=O)NCC(=O)O)CSCC(=O)N[C@@H](Cc2ccc3ccccc3c2)C(=O)N[C@@H](Cc2ccc(O)cc2)C(=O)N[C@@H](CC(=O)O)C1=O` [Ex 1288] ({CH2CO}-[2Nal]YD[NHexGly]YKG[Orn]L[Ahp(2)]PVSCG-OH; thioether N-14), the IC50 was 0.0167 µM.

In the case of `CCCCCCN1CC(=O)N[C@@H](Cc2ccc(O)cc2)C(=O)N[C@@H](CCCCN)C(=O)N[C@@H](CC(=O)O)C(=O)N[C@@H](CCCN)C(=O)N[C@@H](CC(C)C)C(=O)N[C@@H](CCCCC)C(=O)N2CCC[C@H]2C(=O)N[C@@H](C(C)C)C(=O)N[C@@H](CO)C(=O)N[C@H](C(=O)NCC(=O)O)CSCC(=O)N[C@@H](Cc2ccc3ccccc3c2)C(=O)N[C@@H](Cc2ccc(O)cc2)C(=O)N[C@@H](CC(=O)O)C1=O` [Ex 1289] ({CH2CO}-[2Nal]YD[NHexGly]YKD[Orn]L[Ahp(2)]PVSCG-OH; thioether N-14), the IC50 came out at 0.0252 µM.

As for `CCCCCCN1CC(=O)N[C@@H](Cc2ccc(O)cc2)C(=O)N[C@@H](CC(C)C)C(=O)NCC(=O)N[C@@H](CCCNC(=N)N)C(=O)N2Cc3ccccc3C[C@H]2C(=O)N[C@@H](CCCCC)C(=O)N2CCC[C@H]2C(=O)N[C@@H](C(C)C)C(=O)N[C@@H](CO)C(=O)N[C@H](C(=O)NCC(=O)O)CSCC(=O)N[C@@H](Cc2ccc3ccccc3c2)C(=O)N[C@@H](Cc2ccc(O)cc2)C(=O)N[C@@H](CC(=O)O)C1=O` [Ex 1290] ({CH2CO}-[2Nal]YD[NHexGly]YLGR[Tic][Ahp(2)]PVSCG-OH; thioether N-14), the IC50 is 0.0115 µM.
